The text below walks through data of patent US8431591B2, “R(−)-2-methoxy-11-hydroxyaporphine and derivatives thereof” (The McLean Hospital Corporation, priority 2007, dated 2013).

One experiment deals with dopamine D1 receptor (Rattus norvegicus, UniProt P18901). The experiment in a line: Radioligand competition assay, affinity at rat D1 receptors ([3H]SCH23390). The class given is binding. The settings on record: radioligand [3H]SCH23390. Background: Loss of bound radioactivity is the signal in a displacement assay; it reports binding, not function.
Another experiment addresses dopamine D2 receptor (Rattus norvegicus, UniProt P61169). The experiment in a line: Radioligand competition assay, affinity at rat D2 receptors ([3H]nemonapride). The class given is binding.
The next experiment relates to D2 receptor. The settings on record: Gao et al., J. Med. Chem. 33:1800 (1990); cited from earlier work.
The conditions of experiment [1]: following a single dose; cited from earlier work.

Read-outs that look alike come from different tables or passages of the source.

dopamine D2 receptor, sequence (P61169 whole entry): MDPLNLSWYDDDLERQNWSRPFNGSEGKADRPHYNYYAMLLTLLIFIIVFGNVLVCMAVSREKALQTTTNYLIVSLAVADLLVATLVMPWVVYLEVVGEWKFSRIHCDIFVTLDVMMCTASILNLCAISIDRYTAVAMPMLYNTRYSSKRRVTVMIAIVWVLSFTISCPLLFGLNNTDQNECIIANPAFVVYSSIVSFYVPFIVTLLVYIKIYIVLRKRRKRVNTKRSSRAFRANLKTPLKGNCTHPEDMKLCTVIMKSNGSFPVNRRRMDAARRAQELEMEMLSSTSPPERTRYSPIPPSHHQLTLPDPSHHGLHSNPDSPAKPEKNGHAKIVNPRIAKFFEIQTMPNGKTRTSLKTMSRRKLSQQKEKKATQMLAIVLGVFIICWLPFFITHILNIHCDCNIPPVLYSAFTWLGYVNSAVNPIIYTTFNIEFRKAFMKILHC
dopamine D1 receptor, sequence (P18901 whole entry): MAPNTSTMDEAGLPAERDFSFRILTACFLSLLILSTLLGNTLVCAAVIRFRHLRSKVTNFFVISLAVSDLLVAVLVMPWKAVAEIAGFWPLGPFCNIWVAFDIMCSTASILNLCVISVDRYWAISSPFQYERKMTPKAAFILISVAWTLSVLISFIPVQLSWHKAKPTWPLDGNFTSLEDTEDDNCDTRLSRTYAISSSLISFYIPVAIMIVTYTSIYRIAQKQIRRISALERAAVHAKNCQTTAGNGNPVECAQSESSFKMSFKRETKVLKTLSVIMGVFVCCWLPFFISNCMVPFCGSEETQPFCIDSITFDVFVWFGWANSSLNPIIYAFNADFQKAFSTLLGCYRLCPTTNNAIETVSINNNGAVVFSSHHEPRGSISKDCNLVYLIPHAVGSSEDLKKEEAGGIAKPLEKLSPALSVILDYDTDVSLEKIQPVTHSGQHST

For `COc1cc2c3c(c1)-c1c(O)cccc1CC3N(C)CC2` (stereo not drawn) [Compound 3, 2-Methoxy-11-hydroxyaporphine], the Ki at dopamine D1 receptor amounted to 46 ± 2.8 nM; at dopamine D2 receptor (rat receptors, radioligand [3H]nemonapride, read-out: Affinity at rat receptors, D2), 235 ± 32 nM.

For the molecule `COc1cc2c3c(c1)-c1c(ccc(O)c1O)C[C@H]3N(C)CC2` [Compound 8], the values for the Ki at dopamine D1 receptor and at dopamine D2 receptor were 6450 nM and 1.3 ± 0.4 nM, respectively.

In the case of `CCCN1CCc2cc(O)cc3c2[C@H]1Cc1ccc(O)c(O)c1-3` [R(−)-2-OH-NPA, R(−)-2-hydroxy-N-n-propylnorapomorphine], in the experiment with D2 receptor, the “D2 receptor affinity and selectivity (in words)” value was “among the most potent and highly selective agonists for the D2 receptor”.

On to `CCCN1CCc2cc(OC)cc3c2[C@H]1Cc1ccc(O)c(O)c1-3` [Compound 1c, R(−)-2-methoxy-N-n-propylnorapomorphine], for which the “D2 receptor affinity and selectivity (in words)” value in the experiment on D2 receptor was “among the most potent and highly selective agonists for the D2 receptor”.

For the molecule `CN1CCc2cccc3c2[C@H]1Cc1ccc(O)c(O)c1-3` [apomorphine, R(−)-Apomorphine], in experiment [1], the duration of effects is 40 to 60 min and the onset of action was 5 to 15 min.

For the molecule `CCCN1CCc2cccc3c2[C@H]1Cc1cccc(O)c1-3` [Compound 2, R(−)-11-hydroxy-N-n-propylnoraporphine], the “D2 receptor affinity and selectivity (in words)” value in the experiment on D2 receptor is “even higher affinity and selectivity for D2 receptor than apomorphine”.
